What was measured:
Type in all cases: biochemical
HCV protease = target: T1, HCV protease (Hepatitis C virus genotype 1a, UniProt P27958); settings: Chip; 25 mM TRIS/HCL, pH 8.5, 0.1% Triton X-100, 10 mM DTT, 1M NDSB-195
T1 construct: HCV protease was used in a similar fluorogenic assay
Protocol: The product fluorescence is proportional to the amount of cleaved substrate. The height of the product signal is proportional to the rate of enzyme turnover for that substrate concentration. The rate of fluorescence generation can be assessed as the fluorescence signal per mixing time of substrate and enzyme in the reaction channel. That mixing time is determined by the mean residence time of the fluorescent product in the reaction channel as it is electrokinetically pumped from the source of the mixing to the detector. Km was determined from the Michaelis Menton equation.
Due to the chemistry of this FRET quenching reaction, several considerations for accurate measurement of Km on the Labchip™ exist. (1.) There is not an accurate calibration curve for the EDANS labeled product. (2) Accurate determination of the substrate concentration in the Labchip™ reagent well by a simple spectrophotometric measurement is not performed. […]
Note however that this well controlled background fluorescence is not the substrate only background. The extent of substrate hydrolysis over time could not be measured in the continuous flow analysis where enzyme was pumped throughout the course of the experiments. […]
The average percent inhibition response was calculated for the first three inhibited and uninhibited signals at the start of each hour.

LAR phosphatase [1] = target: T2, LAR phosphatase (Homo sapiens, UniProt P10586); experiment: Continuous flow LAR phosphatase assay with fluorogenic substrate dFMUP on a 7A microchip
From the text: In many cases, the biochemical system that is being assayed can be selected or engineered to have an easily detectable result. For example, assaying enzyme function is typically made simple by utilizing fluorogenic substrates for the enzyme, e.g., non-fluorescent substrates which yield fluorescent products. Such assays are readily incorporated into microfluidic devices for performance of assays to identify compounds that may effect normal enzyme activity. In one embodiment, using a 7A chip as described supra (see, e.g., FIG. 7), one continuously flows enzyme and fluorogenic substrate through a channel of the device. This continuous flow of enzyme and substrate produces a steady state fluorescent signal from the fluorescent product. Enzyme inhibitor (or, e.g., compounds for which one wishes to test inhibitory activity) are periodically introduced into the main channel. These inhibitors then reduce the amount of product produced within the main channel resulting in a deviation from the steady state signal. Specifically, both phosphatase assays and protease assays were performed using a 7A chip.
The phosphatase assay utilizes a fluorogenic substrate dFMU, which produces a fluorescent signal upon dephosphorylation. The reaction is shown schematically in FIG. 12. […] In this experiment, the running buffer was 1 M NDSB-195 in 25 mM HEPES, pH 7.9. Reagent concentrations were 125 nM LAR, 50 μM dFMUP and 200 μM peptide inhibitor in wells 6, 8 and 2 respectively. Each reagent well was paired with a well containing running buffer. The system was programmed to repeatedly run a sixteen-step loop of experiments. The sixteen steps were a series of controls followed by the enzyme plus substrate experiment. Each step of the loop conserved the total current flux in the main reaction channel. The total flux remained constant during each step of the loop by maintaining a constant sum of currents from the wells. The proportion of that overall flux from each reagent and buffer well was selected to provide the desired final reagent concentration in the main reaction channel. The fluorescence response was monitored in each of the sixteen experimental steps where the continuous flow stream alternated between buffer, substrate, buffer, substrate plus enzyme at four different substrate concentrations. An example of a controller program is shown below, Table 2.
The substrate concentration was varied for each sequence of three controls followed by the enzyme reaction. The concentrations of the reagents in the main channel can be calculated from the ratio of currents used to pump the reagents. The concentrations in the reaction channel are simply the concentration in the well multiplied by the ratio of current applied at that well, divided by the total current. Here the reaction mixture was […], and either 5, 12.5, 17 or 25 μM dFMUP. The raw fluorescence data is plotted as a function of time. […] Rise times for the enzyme/substrate signal are less than 5 seconds. The background signal remained low over the course of many experimental cycles.
The raw data for the Km, Vmax, kcat and Ki determinations are plotted in FIG. 14. Each trace represents a set of experiments performed in seven step cycles. The enzyme solution was pumped continuously, providing a final concentration of 83 nM LAR in 1 M NDSB-195, 50 mM HEPES, pH 7.5 in the reaction channel, while the signal at various substrate concentrations was recorded. The first step of the cycle is an enzyme only control. Steps two through six contain different levels of substrate up to an including 17 μM dFMUP. The final step of the cycle is a substrate only control, 17 μM dFMUP with no enzyme. The entire experiment, (no peptide inhibitor), was repeated at two inhibitor concentrations, 35 uM and 69 uM peptide. […]

LAR phosphatase [2] = target: T2, LAR phosphatase; experiment: LAR phosphatase/dFMUP assay in a cuvette on the spectrophotometer; settings: 1M NDSB-195/50 mM Hepes, pH 7.5, 0.1 mg/ml BSA
Protocol: A least squares fit of the three straight lines: no inhibitor, 35 μM and 69 μM peptide, was performed with the constraint that they meet at a common intercept on the y axis, 1/Vmax FIG. 15. […] The kcat is 4.74 μmol/min nmol LAR. The parallel analysis performed on the spectrophotometer in the same running buffer yielded a kcat of 6 μmol/min nmol LAR. […] The same analysis performed in a cuvette experiment with 1 mg/ml BSA in the running buffer gave 167 μM peptide.
In addition to the above kinetic studies, rate as a function of substrate concentration data was collected on three separate chips in order to consider interchip reproducibility for Km analyses. The combined data were used to prepare a double reciprocal plot. […] This is in excellent agreement with cuvette experiments performed on the spectrophotometer where dFMU was detected at 360 nm in a temperature controlled cuvette at 25° C.

[3] = chip, 50 mM HEPES, pH 7.5, 10 mM DTT, 0.5 M NDSB-195

T2 sequence (P10586 30-1907): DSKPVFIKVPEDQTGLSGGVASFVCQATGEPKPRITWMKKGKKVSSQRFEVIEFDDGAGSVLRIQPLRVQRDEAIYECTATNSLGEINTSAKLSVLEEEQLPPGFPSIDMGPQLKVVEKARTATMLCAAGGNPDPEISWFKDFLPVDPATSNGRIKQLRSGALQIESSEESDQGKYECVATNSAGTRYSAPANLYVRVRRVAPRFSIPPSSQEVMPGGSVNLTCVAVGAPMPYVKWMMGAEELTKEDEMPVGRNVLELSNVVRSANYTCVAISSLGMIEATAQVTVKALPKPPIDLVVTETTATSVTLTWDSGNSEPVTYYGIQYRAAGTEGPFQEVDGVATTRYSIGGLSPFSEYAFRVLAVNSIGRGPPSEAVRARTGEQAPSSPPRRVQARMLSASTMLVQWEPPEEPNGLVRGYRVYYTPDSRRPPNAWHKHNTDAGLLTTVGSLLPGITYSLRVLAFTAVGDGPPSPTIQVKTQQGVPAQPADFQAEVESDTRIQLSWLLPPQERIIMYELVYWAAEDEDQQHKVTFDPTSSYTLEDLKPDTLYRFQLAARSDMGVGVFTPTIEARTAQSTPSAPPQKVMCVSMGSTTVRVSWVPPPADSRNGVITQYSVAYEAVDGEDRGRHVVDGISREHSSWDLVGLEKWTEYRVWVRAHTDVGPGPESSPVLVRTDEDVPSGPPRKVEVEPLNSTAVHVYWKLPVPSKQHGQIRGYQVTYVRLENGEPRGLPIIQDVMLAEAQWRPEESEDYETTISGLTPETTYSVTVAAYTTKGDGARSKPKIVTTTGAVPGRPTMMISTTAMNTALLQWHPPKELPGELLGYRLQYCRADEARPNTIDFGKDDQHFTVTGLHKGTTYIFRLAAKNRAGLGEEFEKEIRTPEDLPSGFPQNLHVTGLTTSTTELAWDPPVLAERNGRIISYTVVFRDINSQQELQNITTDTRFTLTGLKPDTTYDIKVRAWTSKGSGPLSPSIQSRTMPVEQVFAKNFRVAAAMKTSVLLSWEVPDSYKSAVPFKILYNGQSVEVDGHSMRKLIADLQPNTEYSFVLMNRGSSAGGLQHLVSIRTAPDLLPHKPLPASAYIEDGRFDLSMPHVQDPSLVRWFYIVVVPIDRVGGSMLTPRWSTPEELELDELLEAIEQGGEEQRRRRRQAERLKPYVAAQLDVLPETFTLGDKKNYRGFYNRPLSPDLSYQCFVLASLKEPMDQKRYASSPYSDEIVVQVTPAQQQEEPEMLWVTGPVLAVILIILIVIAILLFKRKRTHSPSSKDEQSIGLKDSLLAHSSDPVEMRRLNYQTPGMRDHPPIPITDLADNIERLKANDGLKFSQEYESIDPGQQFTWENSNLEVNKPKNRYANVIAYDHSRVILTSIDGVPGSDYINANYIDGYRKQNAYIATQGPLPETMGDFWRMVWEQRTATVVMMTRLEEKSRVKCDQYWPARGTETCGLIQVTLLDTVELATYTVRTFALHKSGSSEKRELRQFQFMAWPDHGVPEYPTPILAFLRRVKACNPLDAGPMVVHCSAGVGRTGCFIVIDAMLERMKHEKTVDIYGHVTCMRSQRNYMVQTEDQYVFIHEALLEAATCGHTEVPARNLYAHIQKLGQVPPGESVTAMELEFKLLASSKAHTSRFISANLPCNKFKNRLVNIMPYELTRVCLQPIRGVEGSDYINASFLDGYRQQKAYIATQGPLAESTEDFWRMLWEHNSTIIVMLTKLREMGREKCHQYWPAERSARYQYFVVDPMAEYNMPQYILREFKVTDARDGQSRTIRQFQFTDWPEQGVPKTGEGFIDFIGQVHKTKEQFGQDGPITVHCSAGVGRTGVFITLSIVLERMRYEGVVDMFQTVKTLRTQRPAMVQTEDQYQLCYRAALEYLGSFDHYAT
T1 sequence (P27958 1027-1208): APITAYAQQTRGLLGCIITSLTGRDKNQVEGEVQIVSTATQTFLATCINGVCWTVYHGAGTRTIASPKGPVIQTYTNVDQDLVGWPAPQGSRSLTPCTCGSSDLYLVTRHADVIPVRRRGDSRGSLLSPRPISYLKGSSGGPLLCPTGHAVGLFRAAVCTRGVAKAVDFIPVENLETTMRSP

Structure (SMILES) | Km (HCV protease) [µM] | kcat (LAR phosphatase [1]; Chip, 1M NDSB-195/50 mM Hepes, pH 7.5, 83 nM LAR) [μmol/min nmolLAR] | Km (LAR phosphatase [1]; Chip, 1M NDSB-195/50 mM Hepes, pH 7.5, average of three chips, read-out: Km LAR/dFMUP) [µM] | Km (LAR phosphatase [1]; Chip, combined data of three separate chips, double reciprocal plot, read-out: Km) [µM] | Vmax (LAR phosphatase [1]; Chip, least squares fit of Lineweaver-Burke lines, 83 nM LAR) [μM dFMU/s] | Vmax (LAR phosphatase [1]; [3]) [mM/s] | kcat (LAR phosphatase [1]; [3]) [min⁻¹] | Km (LAR phosphatase [1]; chip, 50 mM HEPES, pH 7.5, 10 mM DTT, 0.5 M NDSB-195, read-out: Km) [µM] | kcat (LAR phosphatase [2]; Cuvette (spectrophotometer)) [μmol/min nmolLAR] | Km (LAR phosphatase [2]; Cuvette, 25° C, average of four determinations) [µM]
C/C=C1\NC(=O)[C@H]2CSSCC/C=C/[C@H](CC(=O)N[C@H](C(C)C)C(=O)N2)OC(=O)[C@H](C(C)C)NC1=O [Depsipeptide] | 110 |  |  |  |  |  |  |  |  | 
Cc1cc(=O)oc2c(F)c(OP(=O)(O)O)c(F)cc12 [dFMUP] |  | 4.74 | 18.7 | 18.2 | 6.71 | 0.011 | 3000 to 5000 | 20 to 400 | 6 | 23.2

Source: patent US6613512B1, “Apparatus and method for correcting for variable velocity in microfluidic systems” (Caliper Technologies Corp., priority 1997, dated 2003)
